Measurements: patent US20260166128A1, “HUMAN AMYLIN ANALOG, AND DERIVATIVE THEREOF AND USE THEREOF” (priority 2022, published 2026)
“Also recorded” adds a separate entry of the source. Bridge positions count the residues as written; N and C are the ends. Square brackets hold non-standard residues; d marks the D form. Peptide text beside a SMILES is read from it. * marks the point of attachment. C20 diacid = O=C(O)CCCCCCCCCCCCCCCCCCC(=O)*; Hyp = O=C(O)[C@@H]1C[C@@H](O)CN1; AEEA = NCCOCCOCC(=O)O

Columns and labels:
[1] = biological target: T1, human amylin receptor (Homo sapiens, UniProt O60896+P30988); assay: Luciferase assay of amylin derivatives in amylin receptor/CRE-luc CHO cell line; assay type: cell-based; details: EC50, CHO-K1/Ga15/AMY3 CRE-luc cells, 24 hours incubation, F12 medium containing 10% FBS
T1 construct: host or cells: CHO-K1/Ga15/AMY3 cells, further stably transfected with a CRE-luciferase plasmid
T1 sequence (P30988 25-474): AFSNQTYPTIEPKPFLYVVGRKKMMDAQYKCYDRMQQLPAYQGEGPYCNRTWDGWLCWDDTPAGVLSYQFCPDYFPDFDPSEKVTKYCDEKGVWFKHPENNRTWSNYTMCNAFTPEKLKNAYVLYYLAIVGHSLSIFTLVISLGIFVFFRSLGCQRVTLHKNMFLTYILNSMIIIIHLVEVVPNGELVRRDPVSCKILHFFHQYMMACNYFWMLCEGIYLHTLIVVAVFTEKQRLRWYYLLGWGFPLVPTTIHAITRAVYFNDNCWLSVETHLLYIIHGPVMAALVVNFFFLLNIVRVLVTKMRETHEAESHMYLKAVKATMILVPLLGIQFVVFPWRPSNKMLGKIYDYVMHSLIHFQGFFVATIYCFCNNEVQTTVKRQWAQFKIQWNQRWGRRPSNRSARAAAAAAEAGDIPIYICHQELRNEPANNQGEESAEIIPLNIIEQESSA
T1 sequence (O60896 24-148 partner): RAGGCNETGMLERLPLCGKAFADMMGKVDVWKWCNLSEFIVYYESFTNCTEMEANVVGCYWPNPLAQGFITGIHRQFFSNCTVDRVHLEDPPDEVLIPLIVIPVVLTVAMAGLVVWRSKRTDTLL
Description: The experiment was intended to detect the activity or efficacy of the amylin derivatives on a human amylin receptor in vitro by luciferase assay.
50 μL of growth medium (F12 medium containing 10% FBS) was added into each well of a white 96-well plate, and the stably transfected amylin/CRE-lue CHO cells were inoculated into the white 96-well plate at a density of about 20,000 cells/well for activity determination.

[2] = Study on fatty acid side chain of derivatives, weight reduction in SD rats (Example 7); assay type: in vivo; details: subcutaneous, 30 nmol/kg
Description: SD rats obtained by the same method as in Example 5 were used in this experimental study. There were an experimental group E: for testing weight reduction effects of the compounds PD065 and PD187, and an experimental group F: for testing the compounds PD065, PD071, PD140, PD144, PD145, PD146 and PD147, with 5 to 8 rats in each group of the derivative test, and the rats in each group were subcutaneously administered with a derivative or a solvent by a dosage of 30 nmol/kg. The administration time of each group was recorded. After administration, the rats were put back into their cages in which food and water available for the rats were placed. Food consumption and weight changes of the rats were recorded every 24 hours by online recording or manual recording.

In the case of `CC[C@H](C)[C@H](NC(=O)[C@@H]1CCCN1C(=O)[C@H](CCCCN)NC(=O)[C@H](CC(C)C)NC(=O)[C@H](CC(N)=O)NC(=O)[C@H](CC(N)=O)NC(=O)[C@H](CO)NC(=O)[C@H](CO)NC(=O)[C@H](Cc1c[nH]cn1)NC(=O)[C@H](CCCNC(=N)N)NC(=O)[C@H](CC(C)C)NC(=O)[C@H](Cc1ccccc1)NC(=O)[C@H](CC(=O)O)NC(=O)[C@H](C)NC(=O)[C@H](CC(C)C)NC(=O)[C@H](CCCNC(=N)N)NC(=O)[C@H](CCC(N)=O)NC(=O)[C@@H](NC(=O)[C@H](C)NC(=O)[C@@H]1CSSC[C@H](NC(=O)[C@H](CCCCN)NC(=O)COCCOCCNC(=O)COCCOCCNC(=O)CCCCCCCCCCCCCCCCCCC(=O)O)C(=O)N[C@@H](CC(N)=O)C(=O)N[C@@H]([C@@H](C)O)C(=O)N[C@@H](C)C(=O)N[C@@H]([C@@H](C)O)C(=O)N1)[C@@H](C)O)C(=O)N[C@@H](CC(C)C)C(=O)N1CCC[C@H]1C(=O)N1CCC[C@H]1C(=O)N[C@H](C(=O)N[C@@H](CC(N)=O)C(=O)N[C@H](C(=O)NCC(=O)N[C@@H](CO)C(=O)N[C@@H](CC(N)=O)C(=O)N[C@H](C(=O)N1C[C@H](O)C[C@H]1C(N)=O)[C@@H](C)O)C(C)C)[C@@H](C)O` [PD187] ({C20 diacid-AEEA-AEEA}-KCNTATCATQRLADFLRHSSNNLKPILPPTNVGSNT[Hyp]-NH2; disulfide 2-7 (inferred)), the EC50 [1] is reported as 0.016 nM and the “activity (weight reduction effect) compared with PD065” value [2] is reported as “better than that of the PD065; also recorded: better weight reduction effect”.
